Results on 2 compounds are retold here after US20050202511A1, “AMP-activated protein kinase (AMPK) inhibitor screening assay” (priority 2002, published 2005).

For one assay, the target named is T1, AMPK-γ2 CBS3-4 construct (Homo sapiens, UniProt Q9UGJ0).
T1 construct: the C-terminal pair (CBS3-4, residues 430-556); made in house; host or cells: E. coli BL21 (DE3), vector pGEX-KG
Nature of the assay: Displacement of AMP by AMP-S (competitive binding assay). The protocol:
(§1) Various concentrations of [^14C]-AMP, [γ^32P] […] Reactions were stopped by spotting 10 ìl onto a Millipore MF Filter Membrane disc and rapidly washing under high vacuum with 1 ml of ice-cold TBS. Radioactivity was determined on the filters by scintillation counting. Non-specific binding (which was trivial) was determined by performing the assay with GST as a control, and was subtracted. […] Data were fitted to the binding models given in the text, using GraphPad Prism 3. Estimates of parameters resulting from fits are quoted in the text and Table 1±standard error, and the curves shown in figures are theoretical curves obtained using those estimates.

In a further assay the test system is AMPK. Nature of the assay: Activation of AMPK (data not shown). Type of assay: biochemical. The following applies: read-out: concentration giving half-maximal activation.
The target of assay [1] is T2, cystathionine â-synthase CBS domain pair D444N (Homo sapiens, UniProt P35520, D444N).
T2 construct: 416-551 of cystathionine â-synthase; made in house; host or cells: E. coli BL21 (DE3)
Nature of the assay: Filter binding assay, GST-CBS domain fusion.
Excerpt: (§2) Finally, DNA encoding the C-terminal CBS domain pair from the enzyme cystathionine â-synthase was cloned and expressed.
(§3) For IMPDH2, DNAs encoding residues 112-232 or the full-length protein (1-514) were amplified using human liver cDNA (Clontech) as template, and cloned into pHAT20 (Clontech) using 5′-AgeI and 3′-KpnI sites added to the primers. For the other constructs, DNAs encoding residues 582-840 of CLC2, or 416-551 of cystathionine â-synthase, were amplified using human liver cDNA as template, and cloned into pGEX-KG as above using 5′-BamHI and 3′-XhoI sites added to the primers. All mutations were created using the Stratagene QuikChange Site-directed Mutagenesis system.
as §1

Assay [2] concerns the target T3, cystathionine â-synthase CBS1-2 (WT) (Homo sapiens, UniProt P35520).
T3 construct: 416-551 of cystathionine â-synthase; made in house; host or cells: E. coli BL21 (DE3)
Nature of the assay: Filter binding assay, GST-CBS domain fusion. The following applies: single-site model.
Excerpt: as §2, §3, §1

The target of assay [3] is wild type cystathionine â-synthase (Homo sapiens, UniProt P35520). The following applies: read-out: half-maximal effect (activation); cited from earlier work.
Assay [4] has as its target cystathionine â-synthase D444N mutant (Homo sapiens, UniProt P35520, D444N). The following applies: concentrations of SAM up to 300 μM; cited from earlier work.

T1 sequence (Q9UGJ0 430-556): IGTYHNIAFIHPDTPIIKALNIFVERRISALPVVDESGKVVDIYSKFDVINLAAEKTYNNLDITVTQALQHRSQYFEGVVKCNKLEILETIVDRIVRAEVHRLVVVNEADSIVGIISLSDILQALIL

In general, Kd refers to the constant that tells how readily two partners part at equilibrium. Regarding `Nc1ncnc2c1ncn2[C@@H]1O[C@H](COP(O)(O)=S)[C@@H](O)[C@H]1O` [AMP-S, adenosine 5′-O-monothiophosphate], the “Kd fold lower than the Kd of CBS3-4 for AMP” value at AMPK-γ2 CBS3-4 construct turned out to be 2 fold. For the same compound, at AMPK-γ2 CBS3-4 construct (read-out: Kd from single site competitive binding model), the Kd was 48 ± 12 µM. In addition, in the assay on AMPK, the EC50 was determined as 3.1 µM.

Take `C[S+](CC[C@H](N)C(=O)O)C[C@H]1O[C@@H](n2cnc3c(N)ncnc32)[C@H](O)[C@@H]1O` (some centres unmarked) [S-adenosyl methionine]: the “increase in Kd relative to wild type” value in assay [1] is 15 fold. Also, the Kd in assay [1] (single-site model) was found to be 510 ± 70 µM; in assay [2], 34 µM. The EC50 in assay [3] was ~20 µM. In assay [4], the activation result was “not significantly activated”.
